Data as given in patent publication US7387779B2, “Anti-angiogenic proteins and fragments and methods of use thereof” (Beth Israel Deaconess Medical Center, priority 1998, dated 2008).

Assays:
PC3 tumor xenografts = assay: PC3 human prostate tumor xenograft (Example 58); format: in vivo, nude NCRNU mice; conditions: 5.0 mg/kg i.p. daily, 3 weeks; for Final Tumor Weight (V/Vo) ± SEM: T7 vehicle 5.626 ± 0.38, T8 vehicle 6.278 ± 1.483
Protocol: Male nude NCRNU mice, 5-6 weeks old, weighing approximately 25 grams, 6 were implanted with 2×10^6 PC3 cells into the dorsal subcutis. When the tumors were 60 mm^3, the animals were pair-matched into treatment and control groups. Each group contained 6-7 tumored mice, each of which was ear-tagged and followed individually throughout the experiment. Initial doses of peptide or vehicle control were given on the day of pair-matching (Day 0), and were administered via intraperitoneal (i.p.) injection at doses indicated. Mice were weighed weekly, and tumor measurements were taken by calipers weekly. These tumor measurements were converted to tumor volume by a well-known formula, (V=W^2×L/2), and mean tumor volumes were plotted against time. Mice were euthenized at the end of the treatment period. Upon termination, the mice were weighed, sacrificed and their tumors were excised. The mean tumor weight per group was calculated, and the value of mean treated tumor volume or volume ratio/mean control tumor volume or volume ratio×100 was subtracted from 100% to give the tumor growth inhibition (TG1) for each group. All groups received injections I.P. daily, except for two T8-treated groups, which were treated twice per week and once a week, respectively.

C-PAE cells [1] = assay: Cell attachment assay; format: cell-based, bovine; conditions: for attachment of endothelial cells onto vitronectin-coated plates in the presence of peptide: 5 μg/ml
Protocol: (§1) The attachment of HUVECs to Tumstatin-coated plates in the presence of integrin subunits α1 through α6, β1, and αvβ3 integrin blocking antibody was examined. This assay was performed according to the method of Senger et al. (Senger, D. R. et al, 1997, Proc. Natl. Acad. Sci. USA 94:13612-7), with minor modification. 96-well plates were coated with either human Tumstatin, mouse laminin-1, or human Type IV collagen (Collaborative Biomedical Prods., Bedford, Mass., USA) at a concentration of 10 μg/ml overnight at 37° C. Vitronectin (Collaborative Biomed. Prods.) at a concentration of 0.5 μg/ml was then used to coat the plates. The remaining protein binding sites were blocked with 100 mg/ml of BSA (Sigma Chemical Co., St. Louis, Mo., USA) in PBS for 2 hours. HUVEC cells were grown to subconfluence (70-80%) in EGM-2 medium, gently trypsinized and resuspended in serum-free medium (1.5×10^5 cells/ml). The cells were mixed with 10 μg/ml of either mouse IgG, (control) (Life Technologies/Gibco BRL, Gaithersberg, Md., USA) or antibody (mouse monoclonal antibody to the human β1 integrin (clone P4C10) (Life Technologies/Gibco BRL); monoclonal antibody to human integrins α1 through α.6 (CHEMICON Int'l, Temecula, Calif., USA); αvβ3 integrin (clone LM609) (CHEMICON Int'l) and incubated for 15 minutes at room temperature, with gentle agitation. One hundred microliters of the cell suspension was then added to each well and incubated for 45 minutes at 37° C. Unattached cells were removed by washing, and the number of attached cells were counted after staining with methylene blue. C-PAE cells were used in separate experiments, following the above procedure.
To determine the attachment of C-PAE cells to plates coated with the Tumstatin deletion mutants, the cell attachment assay was performed as described above (see, e.g., Example 28). Rabbit antibody raised against Tum-4 was prepared as previously described (Kalluri et al., 1997, J. Clin. Invest. 99:2470-8). Goat anti-rabbit IgG antibody conjugated with horseradish peroxidase was purchased from Sigma Chemical Company (St. Louis, Mo., USA). […] Plates coated with Tum-1 (FIG. 36A) were also treated with anti-Tum-4 antibody (1:200 dilution) to block the previously reported (Shahan et al, 1999, Cancer Res. 59:4584-90) αvβ3 binding site, as well as the αvβ5 binding site.
(§2) Cell Attachment Activity: Cell attachment using endothelial cells was performed as described above. HUVEC or C-PAE cells were incubated with monoclonal anti-human integrin antibodies, control mouse IgG (10 μg/ml), or synthetic peptide, plated onto pre-coated 96-well plates, and the number of cells attaching to the plates was determined using measurement of methylene blue staining at OD655. […] CNGRC peptide was used as a control.
(§3) The cell attachment assay was performed as described above.
Tumstatin produced in 293 human embryonic kidney cells was used to coat tissue culture plates. […] PBS and BSA served as positive and negative controls, respectively.

C-PAE cells [2] = assay: Endothelial cell proliferation, methylene blue staining; format: cell-based, bovine; conditions: for inhibition of endothelial cell proliferation by synthetic peptides: 10 μg/ml, 20% FCS
Protocol: A methylene blue staining test was also done. 3,100 cells were added to each well and treated as above, and cells were then counted using the method of Oliver et al. (Oliver, M. H. et al., 1989, J. Cell. Science 92:513-18). All wells were washed one time with […] of 1×PBS and the cells were fixed by adding […] of 10% formalin in neutral-buffered saline (Sigma Chemical Co., St. Louis, Mo., USA) for 30 minutes at room temperature. After formalin removal cells were stained with a solution of 1% methylene blue (Sigma Chemical Co.) in 0.01 M borate buffer (pH 8.5) for 30 minutes at room temperature. After removal of staining solution, the wells were washed 5 times with […] of 0.01 M borate buffer (pH 8.5). Methylene blue was extracted from the cells with […] of 0.1N HCi/ethanol (1:1 mixture) for 1 hour at room temperature. The amount of methylene blue staining was measured on a microplate reader (BioRad, Hercules, Calif., USA) using light absorbance at 655 nm wavelength.
In the methylene-blue staining method, 7000 cells were plated into each well of a 96-well plate, and treated as described above. Cells were then counted using the method of Oliver et al. (1989, J. Cell. Sci. 92:513-8). After 48 hours of treatment, all wells were washed with 100 μl of PBS, and the cells fixed with 10% formalin in neutral-buffered saline (Sigma Chemical Co., St. Louis, Mo., USA). The cells were then stained with 1% methylene blue (Sigma) in 0.01M borate buffer, pH 8.5. Wells were washed with 0.01M borate buffer, and the methylene blue extracted from the cells with 0.1N HCl/ethanol, and the absorbance measured in a microplate reader (Bio-Rad, Hercules, Calif., USA) at 655 nm. Polymyxin B (Sigma) at a final concentration of 5 μg/ml was used to inactivate endotoxin (Liu, S. et al., 1997, Clin. Biochem. 30:455-63).
Proliferation of endothelial cells (C-PAE cells) and WM-164 melanoma cells was assayed by methylene blue staining, as described above in Examples 25 and 34. The results are shown in FIGS. 33A and 33B, which are a pair of graphs showing the effect of increasing concentration (x-axis) of Tumstatin, Tum-1, Tum-2, Tum-3 and Tum-4 on the relative number (y-axis) of C-PAE cells (FIG. 33A) and WM-164 cells (FIG. 33B). […] Tum-4, however, did have anti-proliferative activity in this cell line. […] Only Tum-4 inhibited WM-164 melanoma cells.
For the proliferation assay, Canstatin, Can-1 and Can-2 soluble proteins (0.1-20.0 μg/ml) were added to the growth medium of proliferating C-PAE cells, which were stimulated with 10% FBS in DMEM, in addition to 5 ng/ml bFGF and 3 ng/ml VEGF. The results are shown in FIG. 40, which is a graph showing the effect of increasing concentrations of Canstatin (♦), Can-1 (▪) and Can-2 (▴) (x-axis) on the relative cell number (y-axis) of C-PAE cells. Each concentration of each protein was tested in quadruplicate. Bovine serum albumin (BSA) was used as a control treatment. Polymyxin B was used to control for endotoxin interference, and no differences were found between assays run with and without polymyxin B added to the medium. Cells were allowed to proliferate for 48 hours, and were then fixed, stained and the density read with a Bio-Rad plate reader (Bio-Rad, Hercules, Calif., USA). Canstatin and Can-1 both caused dose-dependent decreases in the percent cell number, and both reduced the number of cells by 80% at concentrations of 5 μg/ml and higher.
An endothelial cell proliferation assay was used to compare the activity of Tumstatin and some of the deletion mutants. Recombinant Tumstatin (28 kDa), Tumstatin-44-131 (12 kDa) and T3 peptide were used in a methylene blue proliferation assay in equimolar concentrations.

C-PAE cells [3] = assay: Cell cycle analysis (propidium iodide, flow cytometry); format: cell-based, bovine
Protocol: To further evaluate the mechanism of T3 peptide on endothelial cell proliferation, the effect of T3 peptide on cell cycle progression was analyzed. In the growth arrested and contact inhibited cells (0 hour), 4.1% of cells were in S phase. […] This was true even at a maximal dosage of 100 μg/ml. The effect of the T3 peptide was dose-dependent, however, with the percentage of cells in S phase at 21.4% at 10 μg/ml, and 20.5% at 25 μg/ml. The percentage of cells in G0/G1 phase was 88.3% at 0 hour, 53.4% for the bFGF control, and 57.6%, 57.6% and 71.0% for treatments with T1, T6 and T3 peptide, respectively. […] Apoptotic Activity: Peptides T2, T3, T4, T5 and T6 (10 μg/ml concentration) were tested for their effect of viability of C-PAE cells using the MTT assay, as described in Examples 32 and 36 above. The results are shown in FIG. 43D, which is a histogram showing cell viability as measured at OD595 (y-axis), and treatments with the synthetic peptides (x-axis). […] TNF-α (100 ng/ml) was used to serve as a positive control in inducing endothelial cell apoptosis.
The effect of Tumstatin-44-131 and Tum-5-125-C-A on the cell cycle were assayed similarly to Example 4 above. Briefly, C-PAE cells were growth arrested by contact inhibition for 48 hours. The cells, at 10^5 cells per well, were then harvested and plated into a 12-well plate coated with fibronectin in 5% FCS and either recombinant Tumstatin-44-131 or Tum-5-125-C-A. After 21 hours, the cells were harvested and fixed in 70% ice-cold ethanol. The fixed cells were rehydrated a room temperature for 30 minutes in PBS containing 2% FCS and 0.1% Tween-20, centrifuged and resuspended in 0.5 ml of the same buffer. RNase (5 μg/ml) digestion was done at 37° C. for one hour, followed by staining with propidium iodide (5 μg/ml). The cells were then counted using an EPICS XL-MCL flow cytometer (Beckman-Coulter Instruments, Fullerton, Calif., USA).

HUVEC cells = assay: Cell adhesion assay with integrin blocking antibodies; format: cell-based, human; conditions: label = plate coating; 10 μg/ml antibody
Protocol: as §1, §2, §3

In the case of “ANMSRNVFFDCTSFPVCQKFLNDTRNY (Scrambled peptide SP1) [reference compound]”, the “% Tumor growth inhibition” value (PC3 tumor xenografts) is reported as 31.7% and the “Final Tumor Weight (V/Vo) ± SEM” value (PC3 tumor xenografts) is reported as 4.284 ± 1.244.

“CDCRGDCFC (synthetic blocking peptide) [reference compound]” was tested, and the “attachment of endothelial cells onto vitronectin-coated plates in the presence of peptide” value (C-PAE cells [1]) was “inhibited attachment”.

In the case of “CNGRC (synthetic blocking peptide) [reference compound]”, the “attachment of endothelial cells onto vitronectin-coated plates in the presence of peptide” value (C-PAE cells [1]) is reported as “did not show such inhibition”.

In the case of “DVCNFASRNDYSYWLSTPAL (T4 (amino acids 83-102 of SEQ ID NO10))”, the “inhibition of endothelial cell proliferation by synthetic peptides” value (C-PAE cells [2]) is reported as “no inhibitory activity”.

With “NQRAHGQDLGTLGSCLQRFT (T2 (amino acids 53-72 of SEQ ID NO10))” the “inhibition of endothelial cell proliferation by synthetic peptides” value (C-PAE cells [2]) was “nor did it inhibit endothelial cell proliferation”.

In the case of “RALEPYISRCTVCEGPAIA (T6 (amino acids 113-131 of SEQ ID NO10))”, the “percentage of cells in S phase” value (C-PAE cells [3]; bFGF 24 hours (control 22.1%), T1 or T6, maximal dosage of 100 μg/ml) is reported as 21.2%, the “percentage of cells in G0/G1 phase” value (C-PAE cells [3]; bFGF control 53.4%) is reported as 57.6% and the “binding to vitronectin-coated plates (2.5 μg/ml) in the presence of peptide” value (C-PAE cells [1]; 0.1, 1.0, 10.0 μg/ml peptide) is reported as “did not inhibit attachment”.

TMPFLFCNVNDVCNFASRNDYSYWL [T7] was tested, and the “% Tumor growth inhibition” value (PC3 tumor xenografts) was 66.8%, the “Final Tumor Weight (V/Vo) ± SEM” value (PC3 tumor xenografts) was 1.868 ± 0755 and the EC50 (C-PAE cells [2]; equimolar comparison, read-out: ED50, anti-proliferative effect) was 1000 nM.

With “laminin-1: mouse laminin-1, control plate coating [reference compound]” the “inhibition of HUVEC attachment to coated plates by α5 antibody” value (HUVEC cells) was 50% and the “inhibition of HUVEC attachment to coated plates by α6 antibody” value (HUVEC cells) was 89%.

B1: vitronectin: control plate coating (protein)
chain: DQESCKGRCTEGFNVDKKCQCDELCSYYQSCCTDYTAECKPQVTRGDVFTMPEDEYTVYDDGEEKNNATVHEQVGGPSLTSDLQAQSKGNPEQTPVLKPEEEAPAPEVGASKPEGIDSRPETLHPGRPQPPAEEELCSGKPFDAFTDLKNGSLFAFRGQYCYELDEKAVRPGYPKLIRDVWGIEGPIDAAFTRINCQGKTYLFKGSQYWRFEDGVLDPDYPRNISDGFDGIPDNVDAALALPAHSYSGRERVYFFKGKQYWEYQFQHQPSQEECEGSSLSAVFEHFAMMQRDSWEDIFELLFWGRTSAGTRQPQFISRDWHGVPGQVDAAMAGRIYISGMAPRPSLAKKQRFRHRNRKGYRSQRGHSRGRNQNSRRPSRATWLSLFSSEESNLGANNYDDYRMDWLVPATCEPIQSVFFFSGDKYYRVNLRTRRVDTVDPPYPRSIAQYWLGCPAPGHL
For B1, the “inhibition of HUVEC attachment to coated plates by αvβ3 antibody” value (HUVEC cells) was 61%.

B2: Tum-5: residues 54 to 132 of Tumstatin (SEQ ID NO:26) (protein)
chain: QRAHGQDLGTLGSCLQRFTTMPFLFCNVNDVCNFASRNDYSYWLSTPALMPMNMAPITGRALEPYISRCTVCEGPAIAI
modifications: Tum-5 (amino acids 54-132 of SEQ ID NO10)
In the case of B2, the “inhibition of HUVEC attachment to coated plates by αvβ3 antibody” value (HUVEC cells) is reported as “significantly inhibited” and the “attachment to coated plates in the presence of RGD peptide ([…])” value (C-PAE cells [1]; label = plate coating) is reported as “not inhibited”.
